Measured values: ChEMBL document CHEMBL1151574, “Convergent syntheses and cytostatic properties of 2-chloro-2-deoxy-2-fluoroadenosine and its N7-isomer” (1995)
Activity calls are given as the source filed them. The rule behind the calls is not given here.

What was measured:
[1] = tested on: IM-9; assay: In vitro toxicity against myeloma cell line (IM-9) at a concentration of 0.01 ug/ml; type: functional, Homo sapiens
[2] = tested on: IM-9; assay: In vitro toxicity against myeloma cell line (IM-9) at a concentration of 0.1 ug/ml; type: functional, Homo sapiens
[3] = tested on: IM-9; assay: In vitro toxicity against myeloma cell line (IM-9) at a concentration of 10 ug/ml; type: functional, Homo sapiens
[4] = tested on: MOLT-3; assay: In vitro toxicity against acute T cell leukemia (MOLT-3) at a concentration of 0.01 ug/ml; type: functional, Homo sapiens
[5] = tested on: MOLT-3; assay: In vitro toxicity against acute T cell leukemia (MOLT-3) at a concentration of 0.1 ug/ml; type: functional, Homo sapiens
[6] = tested on: MOLT-3; assay: In vitro toxicity against acute T cell leukemia (MOLT-3) at a concentration of 1.0 ug/ml; type: functional, Homo sapiens
[7] = tested on: MOLT-3; assay: In vitro toxicity against acute T cell leukemia (MOLT-3) at a concentration of 10 ug/ml; type: functional, Homo sapiens
[8] = tested on: PHA-Ly; assay: In vitro toxicity against phytohemagglutininin-stimulated peripheral blood lymphocytes (PHA-Ly) at a concentration of 0.01 ug/ml; type: functional, Homo sapiens
[9] = tested on: PHA-Ly; assay: In vitro toxicity against phytohemagglutininin-stimulated peripheral blood lymphocytes (PHA-Ly) at a concentration of 0.1 ug/ml; type: functional, Homo sapiens
[10] = tested on: PHA-Ly; assay: In vitro toxicity against phytohemagglutininin-stimulated peripheral blood lymphocytes (PHA-Ly) at a concentration of 1.0 ug/ml; type: functional, Homo sapiens
[11] = tested on: PHA-Ly; assay: In vitro toxicity against phytohemagglutininin-stimulated peripheral blood lymphocytes (PHA-Ly) at a concentration of 10 ug/ml; type: functional, Homo sapiens
[12] = tested on: Raji; assay: In vitro toxicity against Burkitt's lymphoma (B-cell) (Raji) at a concentration of 0.01 ug/ml; type: functional, Homo sapiens
[13] = tested on: Raji; assay: In vitro toxicity against Burkitt's lymphoma (B-cell) (Raji) at a concentration of 0.1 ug/ml; type: functional, Homo sapiens
[14] = tested on: Raji; assay: In vitro toxicity against Burkitt's lymphoma (B-cell) (Raji) at a concentration of 1.0 ug/ml; type: functional, Homo sapiens
[15] = tested on: Raji; assay: In vitro toxicity against Burkitt's lymphoma (B-cell) (Raji) at a concentration of 10 ug/ml; type: functional, Homo sapiens
[16] = tested on: U-937; assay: In vitro toxicity against histocytic lymphoma (U-937) at a concentration of 0.01 ug/ml; type: functional, Homo sapiens
[17] = tested on: U-937; assay: In vitro toxicity against histocytic lymphoma (U-937) at a concentration of 0.1 ug/ml; type: functional, Homo sapiens
[18] = tested on: U-937; assay: In vitro toxicity against histocytic lymphoma (U-937) at a concentration of 1.0 ug/ml; type: functional, Homo sapiens
[19] = tested on: U-937; assay: In vitro toxicity against histocytic lymphoma (U-937) at a concentration of 10 ug/ml; type: functional, Homo sapiens
[20] = tested on: IM-9; assay: In vitro toxicity against myeloma cell line (IM-9) at a concentration of 1.0 ug/ml; type: functional, Homo sapiens
[21] = tested on: IM-9; assay: In vitro toxicity against myeloma cell line (IM-9) at a concentration of 10 ug/ml; No significant toxicity; type: functional, cell-based; conditions: Homo sapiens
[22] = tested on: MOLT-3; assay: In vitro toxicity against acute T cell leukemia (MOLT-3) at a concentration of 10 ug/ml; No significant toxicity; type: functional, cell-based; conditions: Homo sapiens
[23] = tested on: PHA-Ly; assay: In vitro toxicity against phytohemagglutininin-stimulated peripheral blood lymphocytes (PHA-Ly) at a concentration of 10 ug/ml; No significant toxicity; type: functional, cell-based; conditions: Homo sapiens
[24] = tested on: Raji; assay: In vitro toxicity against Burkitt's lymphoma (B-cell) (Raji) at a concentration of 10 ug/ml; No significant toxicity; type: functional, cell-based; conditions: Homo sapiens
[25] = tested on: U-937; assay: In vitro toxicity against histocytic lymphoma (U-937) at a concentration of 10 ug/ml; No significant toxicity; type: functional, cell-based; conditions: Homo sapiens

Structure (SMILES): Nc1nc(Cl)nc2c1ncn2[C@@H]1O[C@H](CO)C(O)[C@H]1F (single isomer, unassigned)
- Toxicity [1]: 108%
- Toxicity [2]: 110%
- Toxicity [3]: 5.7%
- Toxicity [4]: 106%
- Toxicity [5]: 79%
- Toxicity [6]: 3.3%
- Toxicity [7]: 2.6%
- Toxicity [8]: 98%
- Toxicity [9]: 90%
- Toxicity [10]: 17%
- Toxicity [11]: 4%
- Toxicity [12]: 103%
- Toxicity [13]: 68%
- Toxicity [14]: 9.1%
- Toxicity [15]: 2.5%
- Toxicity [16]: 99%
- Toxicity [17]: 70%
- Toxicity [18]: 4.9%
- Toxicity [19]: 1.8%
- Toxicity [20]: 19%

Structure (SMILES): Nc1nc(Cl)nc2ncn([C@@H]3O[C@H](CO)C(O)[C@H]3F)c12 (single isomer, unassigned)
- Toxicity [21]: inactive
- Toxicity [22]: inactive
- Toxicity [23]: inactive
- Toxicity [24]: inactive
- Toxicity [25]: inactive
